Laboratory results reported in US6737383B1, “Herbicidal oxadiazolidines” (priority 1999, dated 2004).

What was measured:
[1] = system: wheat; experiment: Test B pre/postemergence wheat; format: in vivo, Triticum aestivum
Procedure, shortened: (§1)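 Test chemicals in a non-phytotoxic solvent mixture with surfactant were sprayed preemergence onto planted seeds and postemergence onto plants 2 to 18 cm tall (1- to 4-leaf stage). After twelve to sixteen days in a greenhouse, injury was visually rated against untreated controls from 0 (no effect) to 10 (complete control).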

[2] = system: surinam grass; experiment: Test B pre/postemergence surinam grass; format: in vivo, Brachiaria decumbens
Procedure, shortened: as §1

[3] = system: crabgrass; experiment: Test B pre/postemergence crabgrass; format: in vivo, Digitaria sanguinalis
Procedure, shortened: as §1

[4] = system: corn; experiment: Test B pre/postemergence corn; format: in vivo, Zea mays
Procedure, shortened: as §1

[5] = system: velvetleaf; experiment: Test B pre/postemergence velvetleaf; format: in vivo, Abutilon theophrasti
Procedure, shortened: as §1

[6] = system: purple nutsedge; experiment: Test B pre/postemergence purple nutsedge; format: in vivo, Cyperus rotundus
Procedure, shortened: as §1

[7] = system: blackgrass; experiment: Test B pre/postemergence blackgrass; format: in vivo, Alopecurus myosuroides
Procedure, shortened: as §1

[8] = system: bamyardgrass; experiment: Test B flood test barnyardgrass; format: in vivo, Echinochloa crus-galli
Method: (§2) At the same time, these crop and weed species were also treated with postemergence applications of test chemicals formulated in the same manner. Plants ranged in height from 2 to 18 cm (1- to 4-leaf stage) for postemergence treatments. Plant species in the flood test consisted of rice (Oryza sativa), smallflower flatsedge (Cyperus difformis), duck salad (Heteranthera limosa) and bamyardgrass (Echinochloa crus-galli) grown to the 2-leaf stage for testing. Treated plants and controls were maintained in a greenhouse for twelve to sixteen days, after which all species were compared to controls and visually evaluated. Plant response ratings, summarized in Table B, are based on a scale of 0 to 10 where 0 is no effect and 10 is complete control. A dash (−) response means no test result.

[9] = system: duck salad; experiment: Test B flood test duck salad; format: in vivo, Heteranthera limosa
Method: as §2

[10] = system: sugar beet; experiment: Test B pre/postemergence sugar beet; format: in vivo, Beta vulgaris
Procedure, shortened: as §1

[11] = system: cocklebur; experiment: Test B pre/postemergence cocklebur; format: in vivo, Xanthium strumarium
Procedure, shortened: as §1

[12] = system: wild oat; experiment: Test B pre/postemergence wild oat; format: in vivo, Avena fatua
Procedure, shortened: as §1

[13] = system: giant foxtail; experiment: Test B pre/postemergence giant foxtail; format: in vivo, Setaria faberii
Procedure, shortened: as §1

[14] = system: bedstraw; experiment: Test B pre/postemergence bedstraw; format: in vivo, Galium aparine
Procedure, shortened: as §1

[15] = system: morningglory; experiment: Test B pre/postemergence morningglory; format: in vivo, Ipomoea hederacea
Procedure, shortened: as §1

[16] = system: pigweed; experiment: Test B pre/postemergence pigweed; format: in vivo, Amaranthus retroflexus
Procedure, shortened: as §1

[17] = system: smallflower flatsedge; experiment: Test B flood test smallflower flatsedge; format: in vivo, Cyperus difformis
Method: as §2

[18] = system: soybean; experiment: Test B pre/postemergence soybean; format: in vivo, Glycine max
Procedure, shortened: as §1

[19] = system: rape; experiment: Test B pre/postemergence rape; format: in vivo, Brassica napus
Procedure, shortened: as §1

[20] = Postemergence, Rate 62 g/ha, scale of 0 to 10, 0 is no effect, 10 is complete control
[21] = Postemergence, Rate 125 g/ha, scale 0 to 10, 0 is no effect, 10 is complete control
[22] = Postemergence, Rate 500 g/ha, scale 0 to 10, 0 is no effect, 10 is complete control
[23] = Preemergence, Rate 62 g/ha, scale of 0 to 10 where 0 is no effect and 10 is complete control
[24] = Preemergence, Rate 125 g/ha, scale 0 to 10, 0 is no effect, 10 is complete control
[25] = Rate 250 g/ha, Postemergence, scale of 0 to 10 where 0 is no effect and 10 is complete control
[26] = Preemergence, Rate 500 g/ha, scale of 0 to 10 where 0 is no effect and 10 is complete control
[27] = Rate 62 g/ha, flood test species, Pre-emergence, visual evaluation after twelve to sixteen days
[28] = Rate 125 g/ha, under heading Pre-emergence, flood test species, visual evaluation after twelve to sixteen days
[29] = Rate 250 g/ha, Pre-emergence (flood test species), scale 0 to 10, 0 is no effect, 10 is complete control
[30] = Rate 500 g/ha, Pre-emergence section of Table B, 0 to 10 scale (0 no effect, 10 complete control)

Structure (SMILES): CCCCCn1c(=O)on(C(=O)N(c2ccc(Cl)cc2)C(C)C)c1=O [Compound 528]
- Wheat plant response rating [1, 20]: 0
- Wheat plant response rating [1, 21]: 0
- Plant response rating, Wheat [1, 22]: 0
- Plant response rating, Wheat [1, 23]: 0
- Wheat plant response rating [1, 24]: 0
- Wheat plant response rating (0 to 10 scale) ([1]; Preemergence, Rate 250 g/ha): 0
- Plant response rating, Wheat [1, 25]: 0
- B. signalgrass plant response rating [2, 20]: 0
- B. signalgrass plant response rating [2, 21]: 0
- Plant response rating, B. signalgrass [2, 22]: 0
- Plant response rating, B. signalgrass [2, 23]: 0
- B. signalgrass plant response rating [2, 24]: 0
- B. signalgrass plant response rating (0 to 10 scale, 0 is no effect, 10 is complete control) ([2]; Preemergence, Rate 250 g/ha): 0
- Plant response rating, B. signalgrass [2, 25]: 0
- Crabgrass plant response rating [3, 20]: 3
- Crabgrass plant response rating [3, 21]: 9
- Plant response rating, Crabgrass [3, 22]: 10
- Plant response rating, Crabgrass [3, 23]: 7
- Crabgrass plant response rating [3, 24]: 9
- Crabgrass plant response rating (0 to 10 scale) ([3]; Preemergence, Rate 250 g/ha): 10
- Crabgrass plant response rating [3, 26]: 10
- Plant response rating, Crabgrass [3, 25]: 9
- Corn plant response rating [4, 20]: 0
- Corn plant response rating [4, 21]: 0
- Plant response rating, Corn [4, 22]: 0
- Plant response rating, Corn [4, 23]: 0
- Corn plant response rating [4, 24]: 0
- Corn plant response rating (0 to 10 scale) ([4]; Preemergence, Rate 250 g/ha): 0
- Corn plant response rating [4, 26]: 0
- Plant response rating, Corn [4, 25]: 0
- Velvetleaf plant response rating [5, 20]: 0
- Velvetleaf plant response rating [5, 21]: 4
- Plant response rating, Velvetleaf [5, 22]: 5
- Plant response rating, Velvetleaf [5, 23]: 0
- Velvetleaf plant response rating [5, 24]: 0
- Velvetleaf plant response rating (0 to 10 scale) ([5]; Preemergence, Rate 250 g/ha): 0
- Velvetleaf plant response rating [5, 26]: 0
- Plant response rating, Velvetleaf [5, 25]: 4
- Nutsedge plant response rating [6, 21]: 0
- Plant response rating, Nutsedge [6, 22]: 6
- Plant response rating, Nutsedge [6, 23]: 0
- Nutsedge plant response rating [6, 24]: 0
- Nutsedge plant response rating (0 to 10 scale) ([6]; Preemergence, Rate 250 g/ha): 0
- Nutsedge plant response rating [6, 26]: 0
- Plant response rating, Nutsedge [6, 25]: 0
- Blackgrass plant response rating [7, 20]: 0
- Blackgrass plant response rating [7, 21]: 0
- Plant response rating, Blackgrass [7, 22]: 5
- Plant response rating, Blackgrass [7, 23]: 0
- Blackgrass plant response rating [7, 24]: 0
- Blackgrass plant response rating (0 to 10 scale) ([7]; Preemergence, Rate 250 g/ha): 0
- Plant response rating, Blackgrass [7, 25]: 0
- Plant response rating, Barnyardgrass (0 to 10 scale, 0 is no effect, 10 is complete control) [8, 27]: 0
- Barnyardgrass plant response rating (0 to 10 scale, 0 is no effect, 10 is complete control) [8, 28]: 0
- Barnyardgrass plant response rating [8, 29]: 0
- Barnyardgrass plant response rating [8, 30]: 0
- Plant response rating, Ducksalad (0 to 10 scale, 0 is no effect, 10 is complete control) [9, 27]: 0
- Ducksalad plant response rating (0 to 10 scale, 0 is no effect, 10 is complete control) [9, 28]: 0
- Ducksalad plant response rating [9, 29]: 0
- Ducksalad plant response rating [9, 30]: 0
- Sugarbeets plant response rating [10, 20]: 0
- Sugarbeets plant response rating [10, 21]: 0
- Plant response rating, Sugarbeets [10, 22]: 2
- Plant response rating, Sugarbeets [10, 23]: 0
- Sugarbeets plant response rating [10, 24]: 0
- Sugarbeets plant response rating (0 to 10 scale) ([10]; Preemergence, Rate 250 g/ha): 0
- Plant response rating, Sugarbeets [10, 25]: 0
- Cocklebur plant response rating [11, 20]: 0
- Cocklebur plant response rating [11, 21]: 0
- Plant response rating, Cocklebur [11, 22]: 3
- Plant response rating, Cocklebur [11, 23]: 0
- Cocklebur plant response rating [11, 24]: 0
- Cocklebur plant response rating (0 to 10 scale) ([11]; Preemergence, Rate 250 g/ha): 0
- Cocklebur plant response rating [11, 26]: 0
- Plant response rating, Cocklebur [11, 25]: 2
- Wild oats plant response rating [12, 20]: 0
- Wild oats plant response rating [12, 21]: 0
- Plant response rating, Wild oats [12, 22]: 0
- Plant response rating, Wild oats [12, 23]: 0
- Wild oats plant response rating [12, 24]: 0
- Wild oats plant response rating (0 to 10 scale) ([12]; Preemergence, Rate 250 g/ha): 0
- Plant response rating, Wild oats [12, 25]: 0
- Giant foxtail plant response rating [13, 20]: 0
- Giant foxtail plant response rating [13, 21]: 3
- Plant response rating, Giant foxtail [13, 22]: 9
- Plant response rating, Giant foxtail [13, 23]: 9
- Giant foxtail plant response rating [13, 24]: 10
- Giant foxtail plant response rating (0 to 10 scale) ([13]; Preemergence, Rate 250 g/ha): 10
- Giant foxtail plant response rating [13, 26]: 10
- Plant response rating, Giant foxtail [13, 25]: 3
- Bedstraw plant response rating [14, 20]: 0
- Bedstraw plant response rating [14, 21]: 0
- Plant response rating, Bedstraw [14, 22]: 8
- Plant response rating, Bedstraw [14, 23]: 0
- Bedstraw plant response rating [14, 24]: 0
- Bedstraw plant response rating (0 to 10 scale) ([14]; Preemergence, Rate 250 g/ha): 0
- Plant response rating, Bedstraw [14, 25]: 0
- Morningglory plant response rating [15, 20]: 2
- Morningglory plant response rating [15, 21]: 3
- Plant response rating, Morningglory [15, 22]: 5
- Plant response rating, Morningglory [15, 23]: 0
- Morningglory plant response rating [15, 24]: 0
- Morningglory plant response rating (0 to 10 scale) ([15]; Preemergence, Rate 250 g/ha): 0
- Morningglory plant response rating [15, 26]: 3
- Plant response rating, Morningglory [15, 25]: 5
- Redroot pigweed plant response rating [16, 20]: 0
- Redroot pigweed plant response rating [16, 21]: 0
- Plant response rating, Redroot pigweed [16, 22]: 0
- Plant response rating, Redroot pigweed [16, 23]: 0
- Redroot pigweed plant response rating [16, 24]: 0
- Redroot pigweed plant response rating (0 to 10 scale) ([16]; Preemergence, Rate 250 g/ha): 0
- Plant response rating, Redroot pigweed [16, 25]: 0
- Plant response rating, S. Flatsedge (0 to 10 scale, 0 is no effect, 10 is complete control) [17, 27]: 0
- S. Flatsedge plant response rating (0 to 10 scale, 0 is no effect, 10 is complete control) [17, 28]: 0
- S. Flatsedge plant response rating [17, 29]: 0
- S. Flatsedge plant response rating [17, 30]: 0
- Soybean plant response rating [18, 20]: 3
- Soybean plant response rating [18, 21]: 3
- Plant response rating, Soybean [18, 22]: 5
- Plant response rating, Soybean [18, 23]: 0
- Soybean plant response rating [18, 24]: 0
- Soybean plant response rating (0 to 10 scale) ([18]; Preemergence, Rate 250 g/ha): 0
- Soybean plant response rating [18, 26]: 0
- Plant response rating, Soybean [18, 25]: 5
- Rape plant response rating [19, 20]: 0
- Rape plant response rating [19, 21]: 0
- Plant response rating, Rape [19, 22]: 3
- Plant response rating, Rape [19, 23]: 0
- Rape plant response rating [19, 24]: 0
- Rape plant response rating (0 to 10 scale) ([19]; Preemergence, Rate 250 g/ha): 0
- Plant response rating, Rape [19, 25]: 3
